In assay [1] the test system is A549. Put plainly: Cell viability after VS-6766 treatment, A549. It counts as cell-based, human. Conditions: A549, 48 hours.
In assay [2] the test system is TOV21G. Put plainly: Cell viability after VS-6766 treatment, TOV21G. It counts as cell-based, human. Conditions: 48 hours.
Assay [3] has as its system WM115. The experiment in a line: Cell viability after VS-6766 treatment, WM115. Conditions: WM115, 48 hours. The assay is classed as cell-based, human.
Assay [4] deals with SKMEL5. The experiment in a line: Cell viability after VS-6766 treatment, SKMEL5. The conditions noted are these: SKMEL5, 48 hours. The assay is classed as cell-based, human.
In assay [5] the test system is IGR-1. Put plainly: Cell viability after VS-6766 treatment, IGR-1. It counts as cell-based, human. Conditions: IGR-1, 48 hours.
Assay [6] deals with KRAS/BRAF mutant human cancer cell lines. The experiment in a line: RNA extraction and qRT-PCR of MHC-I antigen presentation genes. The conditions noted are these: FIG. 1. It counts as cell-based. On the procedure: RNA Extraction and qRT-PCR
Cells were seeded into 6-cm dishes and after an incubate overnight (17~22 hrs) cells were treated with VS-6766 for 48 hours at a concentration that gave an 80% cell viability (1 μM for A549, TOV21G and WM115, and 300 nM for SKMEL5 and IGR-1). RNA was extracted using RNeasy® Plus Mini kit (Qiagen) and converted to cDNA using the cDNA by High-Capacity cDNA Reverse Transcription Kit (Applied Biosystems). TaqMan qPCR was run using HLA-A, B2M, TAP1 and TAP-2 probes from Applied Biosystems. VIC-GAPDH probe as the house keeping gene. Each PCR reaction will be run in triplicate wells. Expression levels were computed as the difference (ΔCT) between the target gene CT and GAPDH CT.
In general terms: Real-time PCR tracks product formation cycle by cycle.

The test system of assay [7] is CT26 KRAS (G12D)-mutant colorectal cancer mouse models. The experiment in a line: Syngeneic CT26 tumor mouse study, VS-6766 and/or anti-PD-1. It counts as in vivo. Conditions: VS-6766 0.5 mg/kg PO QD x 28 days; anti-PD-1 60 μg/mouse (3 mg/kg) IP BIW x 4 doses; Balb/c mice; FIG. 2A, 2B. On the procedure:
CT26 tumor cells were obtained from ATCC and Balb/c mice were obtained from Shanghai Lingchang Biotechnology. Tumor challenge was initiated by subcutaneous inoculation of 3×10^5 CT26 tumor cell suspensions into the right flank of recipient mice. Tumor sizes (mm3) were measured and calculated as described above. Once tumors reached an average volume of 50-80 mm3, mice were sorted into 4 groups (n=10): vehicle (5% DMSO, 10% HPCD in sterile water, oral dosing (PO), once per day (QD), 28 days)+isotype control ([…] intraperitoneally (IP) biweekly, 4 doses; rat IgG2a clone 2A3, BioXcell), VS-6766 (0.5 mg/kg PO QD, 28 days)+isotype control, anti-PD-1 (60 μg/mouse IP biweekly, 4 doses; clone RMP1-14, BioXCell), and VS-6766+anti-PD-1. Tumors and body weights were measured 3 times per week for the duration of the study. At the time of routine monitoring, the animals were checked for any effects of tumor growth and treatments on normal behavior such as mobility, food and water consumption (by looking only), and body weight gain/loss, eye/hair matting and any other abnormal effect. For Kaplan-Meier analysis, an event was defined by death or tumor growth beyond 2,000 mm^3.

Entries after “also recorded” stand apart in the source; their conditions may differ.

On to `CNS(=O)(=O)Nc1nccc(Cc2c(C)c3ccc(Oc4ncccn4)cc3oc2=O)c1F` [VS-6766], for which the “concentration that gave an 80% cell viability” value is 1 µM in assay [1]; 1 µM in assay [2]; 1 µM in assay [3]; 300 nM in assay [4]; 300 nM in assay [5]. Moreover, the HLA-A expression entry in assay [6] (48 h, qRT-PCR) was “increased”. For the same compound, in assay [6] (48 h, qRT-PCR), the TAP1 expression result is given as “increased”. For the same compound, in assay [6] (48 h, qRT-PCR), the TAP2 expression result is listed as “increased”. In addition, in assay [6] (48 h, qRT-PCR), the β2M expression result is “increased”. Further, in assay [6] (multiple KRAS/BRAF mutant human cancer cell lines), the “tumor antigen presentation (markers associated with antigen presentation, MHC-I expression)” value is listed as “increase tumor antigen presentation; also recorded: upregulates”. Further, the “tumor growth / antitumor efficacy (tumor volume)” value in assay [7] is “delay tumor growth”.

For the origin of these results see patent publication US20260199339A1, “COMBINATION THERAPY FOR TREATING ABNORMAL CELL GROWTH” (Verastem, Inc., priority 2020, published 2026).
